Series [1] concerns Human corneal epithelial cells. In words: BrdU incorporation cell proliferation assay in BAK-exposed corneal epithelial cells. The class given is cell-based. The procedure:
(§1) Human corneal epithelial cells at approximately 80% confluence were treated with 0%, 0.001%, 0.01%, or 0.1% BAK for 15 minutes. After 3 and 24 hours of recovery in culture medium, cell proliferation was measured using a calorimetric BrdU incorporation assay. Apoptosis was measured using a calorimetric annexin-based cell death assay. […] To further assess the ability of Tb4 to prevent apoptosis, corneal epithelial cells were treated with 0.01% BAK±Tβ4 over a 5 day time course.
On the technique in general: Uptake of a labelled nucleoside into DNA is a usual measure of proliferation.

In series [2] the test system is Human corneal epithelial cells. In words: annexin-based cell death (apoptosis) assay in BAK-exposed corneal epithelial cells. The procedure: as §1
Setting [3] is: 1 mcg/ml Tβ4, BAK-treated cells, 3 and 24 hour time points.
[4] abbreviates: 0.001%, 0.01% or 0.1% BAK for 15 minutes, 3 and 24 hours recovery.

Take “Thymosin beta 4 (SDKPDMAEIEKFDKSKLKKTETQEKNPLPSKETIEQEKQAGES; Thymosin beta-4; UniProt P62328 2-44, looked up) [Tβ4]”: in series [1] (setting [3]), the “cell proliferation of BAK-treated cells in presence of Tβ4” value is on record as “not promoted”. Besides, in series [2] (0.01% BAK ± Tβ4, longer times in culture (2 to 5 days)), the “BAK-initiated epithelial cell apoptosis” value is reported as “significantly inhibited”. In addition, in series [2] (setting [3]), the “apoptosis of BAK-treated cells in presence of Tβ4” value was “not inhibited”. For the same substance, the “apoptosis compared to cells cultured in medium alone” value in series [2] (5 days in culture, no BAK comparison (medium alone)) was “decreased apoptosis”.
On to “benzalkonium chloride [BAK, reference compound]”, for which the “corneal epithelial cell proliferation compared to control” value in series [1] (setting [4]) is recorded as “inhibited”. In addition, the “apoptosis compared to control” value in series [2] (setting [4]) is on record as “increased”.

(Values after patent US20080214456A1, “Lkktet and/or Lkktnt Peptide Compositions and Methods” (REGENERX BIOPHARMACEUTICALS, INC., priority 2005, published 2008).)
